Data set [1] is described as follows: Circular dichroism (CD) of G4 DNA in KCl. The format is physicochemical. The note with it: 20 mM boric acid pH 7.5, 150 mM KCl, 25 °C, 320-220 nm. The method, then:
(§1) CD measurements were collected on a JASCO J-810 spectropolarimeter (JASCO Inc., Easton, MD, USA) equipped with a PTC-423S peltier system. G4 DNA samples were dialyzed into 20 mM Boric Acid pH 7.5, 150 mM KCl (or NaCl). CD spectra were collected from 320 nm to 220 nm at 25 °C. Five traces were obtained for each DNA substrate, and a reference scan of the buffer alone was subtracted from the averaged CD signal.
For orientation: Circular dichroism is widely used to follow secondary structure.

Data set [2] in a line: Circular dichroism (CD) of G4 DNA in NaCl. To be noted: 150 mM NaCl, 25 °C, 320-220 nm. The data set is classed as physicochemical. The method, then: as §1
Data set [3] concerns full-length human PCNA. Briefly: BLI, biotinylated FANCJ PIP peptides with PCNA. The note with it: Buffer H, 25 °C; for Binding to PCNA: BLI. The data set is classed as binding. The source says: (§2) The pEB022 plasmid used to produce full-length human PCNA protein was kindly provided by Dr. M. Todd Washington (University of Iowa). A codon-optimized construct (VB170525-1265 nra) used to express human REV1 CTD (amino acid residues 1157 to 1251) in E. coli was synthesized by VectorBuilder Inc. (Chicago, IL, USA). Plasmids were transformed into NiCo21(DE3) competent cells from New England Biolabs (Ipswich, MA, USA). Single bacteria colonies were selected on LB agar plates that were supplemented with 50 µg/mL of kanamycin (PCNA) or carbenicillin (REV1 CTD) to inoculate starter cultures in LB broth. Overnight growths were diluted 1:50 into 4 × 1L LB (37 °C, 250 rpm). Protein expression was induced by adding IPTG to 1 mM when the optical density at 600 nm reached 0.4 absorbance units. Cells were cultured overnight at 16 °C. They were harvested 16 h post induction by centrifugation (6000 × g at 4 °C) for 60 min, and the pellets were resuspended in 20 mM NaPi (pH 7.5), 300 mM NaCl, 30 mM imidazole, 1 mM DTT, 5% (v/v) glycerol, 1% NP-40, and 1 mM PMSF.
(§3) BLI assays were performed on a BLItz instrument (Pall Fortébio, Fremont, CA, USA). Streptavidin-coated biosensors were purchased from Pall Fortébio (Lot 1906281). Biosensors were hydrated in Buffer H for 10 min, and the baseline optical interference was recorded. A total of 150 nM of biotinylated G4 DNA or FANCJ PIP peptide was loaded onto the sensors over 2 min, after which they were washed with Buffer H. Binding reactions were initiated by placing the biosensors in analyte solutions at the indicated concentrations. After their interactions had reached an equilibrium, the sensors were returned to buffer to monitor dissociation of the complexes. Experiments were repeated in triplicate. BLI binding isotherms were generated by plotting the plateau values of the association phase versus total analyte concentration. These curves were fit to a 1:1 interaction model, as described above. The parameters reported were obtained from the average and 95% confidence interval of the three data sets.
PIP-containing proteins bind directly to PCNA to coordinate DNA replication and repair. However, it is now evident that noncanonical PIP-boxes can serve as hotspots to recruit other proteins, including the REV1 translesion synthesis polymerase and the MLH1 mismatch repair protein [54, 55, 56, 64]. To test if the PIP-like motif in FANCJ functions as a PIP or an REV1-interacting region (RIR), we compared how this peptide bound to PCNA versus REV1 by BLI. Recombinant human PCNA protein and the C-terminal domain (CTD) of human REV1 were purified from E. coli (Figure S3A). Biotinylated FANCJ PIP was immobilized on a streptavidin-coated biosensor and experiments were performed as described above. […]
(In general: BLI is a label-free optical method that tracks binding on a fibre tip over time.)

Data set [4] relates to human REV1 CTD (amino acid residues 1157 to 1251). Briefly: BLI, biotinylated FANCJ PIP peptides with REV1 CTD. To be noted: Buffer H, 25 °C; for BLI binding signal (Δλ), REV1 CTD versus PCNA: 1.3 µM PCNA trimer. The format is binding.
From the text: as §2, §3
PIP-containing proteins bind directly to PCNA to coordinate DNA replication and repair. However, it is now evident that noncanonical PIP-boxes can serve as hotspots to recruit other proteins, including the REV1 translesion synthesis polymerase and the MLH1 mismatch repair protein [54, 55, 56, 64]. To test if the PIP-like motif in FANCJ functions as a PIP or an REV1-interacting region (RIR), we compared how this peptide bound to PCNA versus REV1 by BLI. Recombinant human PCNA protein and the C-terminal domain (CTD) of human REV1 were purified from E. coli (Figure S3A). Biotinylated FANCJ PIP was immobilized on a streptavidin-coated biosensor and experiments were performed as described above. […] Because Δλ is related to the thickness of the biolayer, this value reports the accumulation of mass on the sensor tip. […] This difference is further magnified as REV1 CTD has a molecular mass of ~12 kDa, while a human PCNA trimer is about seven times its size, at ~86 kDa. Next, we tested the effects of a FANCJ PIP AA peptide on its interactions with REV1 CTD and PCNA. The consecutive consensus aromatic residues (YF) within the potential PIP-motif were replaced with alanine amino acids (AA). […] BLI experiments with PIP and PIP AA were repeated as a function of REV1 CTD and PCNA concentration to measure their corresponding equilibrium constant values.

Data set [5] addresses bioFANCJ PIP AA (human). Briefly: BLI; 150 nM biotinylated FANCJ PIP or PIP AA peptide loaded on streptavidin biosensors (BLItz); REV1 CTD (1.8 uM) or PCNA trimer (1.3 uM) as analyte, also as a function of analyte concentration; Buffer H (20 mM HEPES pH 7.5, 150 mM KCl, 5 mM TCEP, 5% glycerol), 25 C; plateau values fit to a 1:1 model.
Data set [6] addresses T1, full-length human PCNA protein (human, UniProt P12004 1-261).
T1 construct: PCNA sliding clamp, human, full length; made from plasmid pEB022; also called PCNA trimer; source: E. coli NiCo21(DE3), purified (Ni2+ IMAC, heparin)
The description is as above. To be noted: both partners purified.

In data set [7] the target is T2, human REV1 CTD (amino acid residues 1157 to 1251) (human, UniProt Q9UBZ9 1157-1251).
T2 construct: REV1 translesion DNA synthesis polymerase, human, C-terminal domain, residues 1157-1251; codon-optimized construct; also called C-terminal domain (CTD) of human REV1; source: E. coli NiCo21(DE3), purified (Ni2+ IMAC, heparin)
T2 sequence (looked up): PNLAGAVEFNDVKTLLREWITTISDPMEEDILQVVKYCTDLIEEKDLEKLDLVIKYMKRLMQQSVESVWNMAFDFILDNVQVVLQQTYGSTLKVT
Described as above. To be noted: both partners purified.

Where [8] appears, read: biotinylated peptide 150 nM, 1.8 µM REV1 CTD.
Where [9] appears, read: BLI isotherms, PIP AA versus wild-type PIP.

Entries after “also recorded” stand apart in the source; their conditions may differ. Where no end group is shown, it is not given here. The star is where a group is joined. Biotin = O=C1N[C@H]2[C@H](CS[C@H]2CCCCC(=O)*)N1

The record followed here is paper PMC7017153, “Assembly of a G-Quadruplex Repair Complex by the FANCJ DNA Helicase and the REV1 Polymerase” (Genes, 2019).

T1 sequence (P12004 whole entry): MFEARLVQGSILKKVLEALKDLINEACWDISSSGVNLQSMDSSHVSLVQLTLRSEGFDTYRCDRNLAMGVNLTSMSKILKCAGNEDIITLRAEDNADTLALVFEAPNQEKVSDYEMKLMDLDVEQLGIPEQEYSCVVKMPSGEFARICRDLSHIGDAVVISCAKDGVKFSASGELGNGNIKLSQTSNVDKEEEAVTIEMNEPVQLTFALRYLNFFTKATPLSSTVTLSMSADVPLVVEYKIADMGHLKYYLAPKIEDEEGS

Take “(TTAGGG)4: human telomeric G4 DNA, TTAGGGTTAGGGTTAGGGTTAGGG”: the “G4 conformation by CD (KCl)” value in data set [1] was “folded into a hybrid conformation”. For the same molecule, the “G4 conformation by CD (NaCl)” value in data set [2] is given as “adopted an anti-parallel configuration in NaCl buffer”.

On to “Biotin-SWSSFNSLGQYFTGKIP [FANCJ PIP, Biotin-…, FANCJ amino acids 1001–1017]”, for which the “Binding to PCNA” value in data set [3] was “bound to REV1 CTD and to PCNA”. Further, the “Binding to REV1 CTD” value in data set [4] (BLI) is recorded as “bound to REV1 CTD”. In addition, the “BLI binding signal (Δλ), REV1 CTD versus PCNA” value in data set [4] (setting [8]) is reported as “REV1 CTD produced a larger binding signal than PCNA at similar molar concentrations of protein; also recorded: Interactions with REV1 CTD, however, produced a stronger binding signal than PCNA”.

For “full-length human PCNA protein (from UniProt P12004 1-261)”, in data set [5], the fold weakening of the equilibrium constant against wild-type FANCJ PIP was determined as 2 fold.

With “Biotin-SWSSFNSLGQAATGKIP [FANCJ PIP AA, Biotin-…, YF replaced with AA]”, the “Change in affinity (binding constant) for PCNA by PIP AA mutation” value in data set [3] (setting [9]) is recorded as “binding of PCNA was weakened twofold; also recorded: reduced the binding constant for PCNA by half”. Besides, in data set [3], the “Binding to PCNA” value is recorded as “still retained residual interactions with PCNA”. Further, in data set [3] (biotinylated peptide 150 nM, 1.3 µM PCNA trimer), the “BLI binding signal, PIP AA versus wild-type PIP, PCNA” value is given as “larger binding signals compared to the wild-type PIP sequence”. Moreover, the “Change in affinity for REV1 CTD by PIP AA mutation” value in data set [4] (setting [9]) is given as “small increase in affinity for REV1 CTD”. In addition, in data set [4] (setting [8]), the “BLI binding signal (Δλ), REV1 CTD versus PCNA” value is recorded as “more REV1 CTD bound to the mutant peptide versus PCNA” and the “BLI binding signal, PIP AA versus wild-type PIP, REV1 CTD” value is “larger binding signals compared to the wild-type PIP sequence for REV1 CTD”.

B1: bioFANCJ PIP (peptide)
peptide: Biotin-SWSSFNSLGQYFTGKIP
notes: FANCJ helicase, human, PIP-like motif, amino acids 1001-1017; Held on streptavidin biosensors by the N-terminal biotin; also called biotinylated FANCJ PIP; wild-type PIP; source: synthetic peptide (Genscript)
For B1, the binding result in data set [6] and in data set [7] was “binds” each time.
